Article PMC12055641, “The Study of Antistaphylococcal Potential of Omiganan and Retro-Omiganan Under Flow Conditions” (Probiotics and Antimicrobial Proteins, 2024)
No end group written: not given here.

Legend:
[1] = test system: human keratinocytes (HaCaT); assay type: cell-based; conditions: 24 h
Method: To evaluate the cytotoxicity of the peptides (IC50), the classic MTT assay on 96-well plates was performed for human keratinocytes (HaCaT) which were acquired from the ATCC. The assay utilizes colorimetric determination of the cell metabolic activity, and the color intensity reflects the number of live cells that can be measured spectrophotometrically. […] DMSO was added to the control cells at a final concentration of 1.0% (v/v), which was related to the maximum concentration of the solvent compounds used in the experiment. After 24 h of incubation at 37 °C (humidified 5% CO2 incubator) with the peptides, a medium containing 1 mg/mL of MTT was added to the wells up to a final concentration of 0.5 mg/mL. Subsequently, the plates were incubated at 37 °C for 4 h. Then, the medium was aspirated, and the formazan product was solubilized with DMSO. The background absorbance at 630 nm was subtracted from that at 570 nm for each well (Epoch, BioTek Instruments, USA). Six replicates were conducted for each concentration. All experiments were repeated at least twice and the resulting IC50 values were calculated with GraFit 7 software (v. 7.0, Erithacus, Berkley, CA, USA).

[2] = test system: S. aureus ATCC 6538 biofilm; conditions: ATCC 6538, reference strain
S. aureus ATCC 6538 = conditions: ATCC 6538, reference strain
[3] = test system: S. aureus ATCC 6538 biofilm; conditions: ATCC 6538, reference strain; remark: listed apart in the source
[4] = test system: S. aureus ATCC 12598 biofilm; conditions: ATCC 12598, reference strain
Excerpt: (§1) Clinical S. aureus strains were collected from patients with atopic dermatitis during their visits to the Outpatient Clinic and hospitalization in the Department of Dermatology, Venereology and Allergology at Medical University of Gdańsk (following the approval from the ethics committee, Approval Number NKBBN/242–477/2014). Reference strains of S. aureus ATCC 25923, S. aureus ATCC 33591, S. aureus ATCC 9144, and S. aureus ATCC 12598 were obtained from the American Type Culture Collection. All the strains were stored at − 80 °C in Roti®-Store cryo vials (Carl Roth GmbH, Karlsruhe, Germany) and before the tests were transferred into fresh Mueller–Hinton Medium (BioMaxima, Lublin, Poland) and incubated for 24 h at 37 °C. Subsequently, each bacterial inoculum was seeded on Mueller–Hinton agar plates (BioMaxima) and incubated again for 24 h. The cultures prepared in this way were used in further antimicrobial assays. Minimum inhibitory concentrations (MICs) were determined according to the Clinical and Laboratory Standards Institute recommendations. […] The experiments were conducted on 96-well microtiter plates, with a final volume of 100 μL. Additionally, in the case of daptomycin, the medium was supplemented with Ca^2+ (50 mg/L). Cell densities were adjusted spectrophotometrically (Multiskan™ GO Microplate Spectrophotometer, Thermo Scientific) at 600 nm. The MICs were taken as the lowest drug concentration at which a visible growth of the microorganisms was inhibited. Minimum biofilm eliminating concentrations (MBECs) were determined on 96-well flat-bottomed microtiter polystyrene plates with resazurin (7-hydroxy-3H-phenoxazin-3-one 10-oxide sodium salt) as a cell viability reagent. To do this, the plates were filled with 100 μL of the initial inoculums of bacteria (0.5 × 10^7 CFU/mL) in the Mueller–Hinton broth and incubated for 24 h at 37 °C. […] After 24 h of incubation, 20 μL of resazurin (4 mg/mL) was added to each well and the MBEC values were read. Minimum biofilm inhibitory concentrations (MBICs) were also determined on 96-well flat-bottomed microtiter polystyrene plates as described previously. To do this, 50 μL of the compounds in the concentration range, diluted MHB, were prepared. Subsequently, the 50 μL of the staphylococcal inoculums were added to reach the same density of bacteria as that in the MBEC assay. After 24 h of incubation at 37 °C, the wells were rinsed three times with PBS and the fresh medium (100 μL) with resazurin (0.6 mg/mL) was added. Then, after 1 h of incubation, MBICs were read. […] All experiments were conducted in triplicate.

[5] = test system: S. aureus clinical strain 031S biofilm
Excerpt: as §1

[6] = test system: S. aureus clinical strain 030N biofilm
Excerpt: as §1

[7] = test system: S. aureus clinical strain 043SC (MRSA); conditions: 24 h
Excerpt: as §1

[8] = test system: S. aureus clinical strain 009S
Excerpt: as §1

[9] = test system: S. aureus clinical strain 060S biofilm
Excerpt: as §1

[10] = test system: S. aureus clinical strain 043SC (MRSA) biofilm; conditions: clinical strain 043SC biofilm, 24 h
Excerpt: as §1

S. aureus ATCC 25923 = conditions: ATCC 25923, reference strain
Excerpt: as §1

[11] = test system: S. aureus clinical strain 030N
Excerpt: as §1

[12] = test system: S. aureus clinical strain 015N (MRSA) biofilm; conditions: clinical strain 015N biofilm, 24 h
Excerpt: as §1

[13] = test system: S. aureus ATCC 25923 biofilm; conditions: ATCC 25923, reference strain
Excerpt: as §1

[14] = test system: S. aureus clinical strain 004N (MRSA); conditions: 24 h
Excerpt: as §1

[15] = test system: S. aureus clinical strain 015N (MRSA); conditions: 24 h
Excerpt: as §1

[16] = test system: S. aureus ATCC 33591 (MRSA); conditions: ATCC 33591, 24 h
Excerpt: as §1

[17] = test system: S. aureus clinical strain 004N (MRSA) biofilm; conditions: clinical strain 004N biofilm, 24 h
Excerpt: as §1

[18] = test system: S. aureus clinical strain 005S biofilm
Excerpt: as §1

[19] = test system: S. aureus ATCC 9144 biofilm; conditions: ATCC 9144, reference strain
Excerpt: as §1

S. aureus ATCC 12598 = conditions: ATCC 12598, reference strain
Excerpt: as §1

[20] = test system: S. aureus clinical strain 060S
Excerpt: as §1

[21] = test system: S. aureus clinical strain 009S biofilm
Excerpt: as §1

[22] = test system: S. aureus clinical strain 005S
Excerpt: as §1

[23] = test system: reference and clinical strains of staphylococci (S. aureus); conditions: 24 h
Excerpt: as §1

[24] = test system: S. aureus clinical strain 051N (MRSA) biofilm; conditions: clinical strain 051N biofilm, 24 h
Excerpt: as §1

[25] = test system: S. aureus ATCC 33591 (MRSA) biofilm; conditions: ATCC 33591, 24 h
Excerpt: as §1

[26] = test system: biofilm of reference and clinical strains of staphylococci (S. aureus); conditions: for mean MBIC (initial values): average over 14 strains, polystyrene 96-well plates, not corrected
Excerpt: as §1

S. aureus ATCC 9144 = conditions: ATCC 9144, reference strain
Excerpt: as §1

[27] = test system: S. aureus clinical strain 051N (MRSA); conditions: 24 h
Excerpt: as §1

[28] = test system: S. aureus clinical strain 031S
Excerpt: as §1

Substance: KRRWPWWPWRLI-NH2 [Retro-omiganan TFA^−]
- IC50 [1]: 29.51 µg/mL
- MBEC [2]: 64 µg/mL
- MIC (S. aureus ATCC 6538): 8 µg/mL
- MBIC [3]: 16 µg/mL
- MBEC [4]: 32 µg/mL
- MBIC [4]: 16 µg/mL
- MBEC [5]: 16 µg/mL
- MBEC [6]: 32 µg/mL
- MBIC [6]: 8 µg/mL
- MIC [7]: 8 µg/mL
- MIC [8]: 1 µg/mL
- MBEC [9]: 16 µg/mL
- MBIC [9]: 1 µg/mL
- MBEC [10]: 16 µg/mL
- MBIC [10]: 8 µg/mL
- MIC (S. aureus ATCC 25923): 8 µg/mL
- MIC [11]: 16 µg/mL
- MBEC [12]: 32 µg/mL
- MBIC [12]: 16 µg/mL
- MBEC [13]: 128 µg/mL
- MBIC [13]: 16 µg/mL
- MIC [14]: 8 µg/mL
- MIC [15]: 8 µg/mL
- MIC [16]: 16 µg/mL
- MBEC [17]: 64 µg/mL
- MBIC [17]: 16 µg/mL
- MBEC [18]: 16 µg/mL
- MBIC [18]: 2 µg/mL
- MBEC [19]: 32 µg/mL
- MBIC [19]: 16 µg/mL
- MIC (S. aureus ATCC 12598): 8 µg/mL
- MIC [20]: 1 µg/mL
- MBEC [21]: 16 µg/mL
- MBIC [21]: 2 µg/mL
- MIC [22]: 0.5 µg/mL
- mean MIC (initial values) [23]: 7.18 µg/mL
- MBEC [24]: 32 µg/mL
- MBIC [24]: 32 µg/mL
- MBEC [25]: 64 µg/mL
- MBIC [25]: 16 µg/mL
- mean MBEC (initial values) ([26]; 24 h): 40.00 µg/mL
- mean MBIC (initial values) [26]: 11.82 µg/mL
- MIC (S. aureus ATCC 9144): 8 µg/mL
- MIC [27]: 8 µg/mL
- MIC [28]: 2 µg/mL

Substance: ILRWPWWPWRRK-NH2 [Omiganan Cl^−]
- IC50 [1]: 63.99 µg/mL
- MBEC [2]: 32 µg/mL
- MIC (S. aureus ATCC 6538): 8 µg/mL
- MBIC [3]: 32 µg/mL
- MBEC [4]: 64 µg/mL
- MBIC [4]: 32 µg/mL
- MBEC [5]: 16 µg/mL
- MBEC [6]: 64 µg/mL
- MBIC [6]: 16 µg/mL
- MIC [7]: 8 µg/mL
- MIC [8]: 0.5 µg/mL
- MBEC [9]: 16 µg/mL
- MBIC [9]: 2 µg/mL
- MBEC [10]: 32 µg/mL
- MBIC [10]: 16 µg/mL
- MIC (S. aureus ATCC 25923): 16 µg/mL
- MIC [11]: 16 µg/mL
- MBEC [12]: 64 µg/mL
- MBIC [12]: 16 µg/mL
- MBEC [13]: 64 µg/mL
- MBIC [13]: 32 µg/mL
- MIC [14]: 8 µg/mL
- MIC [15]: 16 µg/mL
- MIC [16]: 16 µg/mL
- MBEC [17]: 64 µg/mL
- MBIC [17]: 16 µg/mL
- MBEC [18]: 32 µg/mL
- MBIC [18]: 1 µg/mL
- MBEC [19]: 32 µg/mL
- MBIC [19]: 16 µg/mL
- MIC (S. aureus ATCC 12598): 8 µg/mL
- MIC [20]: 1 µg/mL
- MBEC [21]: 32 µg/mL
- MBIC [21]: 1 µg/mL
- MIC [22]: 1 µg/mL
- mean MIC (corrected values) [23]: 6.77 µg/mL
- mean MIC (initial values) [23]: 7.96 µg/mL
- MBEC [24]: 64 µg/mL
- MBIC [24]: 32 µg/mL
- MBEC [25]: 64 µg/mL
- MBIC [25]: 32 µg/mL
- mean MBEC (corrected values) ([26]; 24 h): 38.86 µg/mL
- mean MBEC (initial values) ([26]; 24 h): 45.71 µg/mL
- mean MBIC (initial values) [26]: 17.46 µg/mL
- mean MBIC (corrected values) ([26]; biofilm of reference and clinical strains of staphylococci, 24 h): 14.84 µg/mL
- MIC (S. aureus ATCC 9144): 4 µg/mL
- MIC [27]: 8 µg/mL
- MIC [28]: 1 µg/mL
